biological target: Tyrosine-protein kinase BTK (Homo sapiens, UniProt Q06187); assay: Inhibition of BTK (unknown origin) by Omnia continuous read kinase assay
Sequence (Q06187 whole entry): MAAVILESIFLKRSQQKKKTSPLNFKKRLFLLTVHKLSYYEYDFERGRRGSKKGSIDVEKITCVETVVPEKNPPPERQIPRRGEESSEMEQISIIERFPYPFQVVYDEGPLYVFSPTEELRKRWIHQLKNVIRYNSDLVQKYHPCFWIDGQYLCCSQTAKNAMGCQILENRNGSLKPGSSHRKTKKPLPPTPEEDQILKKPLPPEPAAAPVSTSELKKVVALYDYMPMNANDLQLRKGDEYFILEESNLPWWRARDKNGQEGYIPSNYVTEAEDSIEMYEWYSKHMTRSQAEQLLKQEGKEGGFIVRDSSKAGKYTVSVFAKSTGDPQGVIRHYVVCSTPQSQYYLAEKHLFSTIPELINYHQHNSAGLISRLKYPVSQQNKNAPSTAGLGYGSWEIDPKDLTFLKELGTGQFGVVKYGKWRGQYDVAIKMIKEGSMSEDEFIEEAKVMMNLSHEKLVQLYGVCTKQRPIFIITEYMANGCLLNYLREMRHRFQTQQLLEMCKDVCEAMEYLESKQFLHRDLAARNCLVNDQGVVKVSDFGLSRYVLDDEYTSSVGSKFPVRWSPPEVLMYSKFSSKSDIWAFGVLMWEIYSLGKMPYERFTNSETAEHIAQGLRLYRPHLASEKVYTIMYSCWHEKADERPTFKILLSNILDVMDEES

Row | IC50 [nM] | Structure (SMILES)
1 | 101 | COCCOc1ccc(Nc2ncc(F)c(Nc3cccc(NC(=O)C(O)CO)c3)n2)cc1 (stereo unspecified)
2 | < 10 | C=CC(=O)Nc1cccc(N(C)c2nc(Nc3ccc(OCCO)cc3)ncc2F)c1
3 | < 10 | C=CC(=O)Nc1cccc(Nc2nc(Nc3ccc(OCCO)cc3)ncc2F)c1
4 | < 10 | COCCOc1ccc(Nc2ncc(F)c(Nc3cccc(NC(=O)C4CO4)c3)n2)cc1 (stereo unspecified)
5 | < 10 | C=CC(=O)Nc1cccc(Nc2nc(Nc3ccc(O)cc3)ncc2F)c1
6 | 101 | C=CC(=O)Nc1cccc(Nc2nc(N(C)c3ccc(OCCO)cc3)ncc2F)c1

From ChEMBL document CHEMBL3351331, “Novel Disubstituted Pyrimidines as Inhibitors of Bruton's Tyrosine Kinase” (ACS Med Chem Lett, 2015)
